Test results as given in paper PMC5028780, “Receptor and transporter binding and activity profiles of albiflorin extracted from Radix paeoniae Alba” (Scientific Reports, 2016).
Where “and” joins values, the source holds several entries; their conditions need not be identical. Equal entries are not always repeated.

What was measured:
sucrose consumption = test system: sucrose consumption; set-up: method as in PMID 26719283; details: rats; chronic unpredicted mild stress; cited from earlier work
α2A = α2A (Rattus norvegicus, UniProt P22909); assay: CNS receptor binding, NE receptor α2A; details: Rat Cortex, [3H]-clonidine(2)
Procedure: (§1) Albiflorin (10 μM) was tested for numerous other potential binding targets by using standard receptor binding procedures. The tested targets included the following receptors: D1, D2, D3, D4, D5, 5-HT1A, 5-HT1B, 5-HT1D, 5-HT2a, 5-HT2C, 5-HT3, 5-HT5A, 5-HT6, 5-HT7, α1A, α1B, α2A, β1, M1, M2, M3, M4, M5, μ, κ, δ, A1, A2A, H1, H2, H3, H4.

D1 = target: T1, D1 (Homo sapiens, UniProt P21728); assay: CNS receptor binding, dopamine D1; details: HEK293 cell line, [3H]-SCH23390(1)
T1 construct: expressed in transfected cells; host or cells: HEK293 cell line
Procedure: as §1

H2 = H2 (Homo sapiens, UniProt P25021); assay: CNS receptor binding, histamine H2; details: HEK293 cell line, [3H]-tiotodine(1)
Procedure: as §1

β1 = β1 (Homo sapiens, UniProt P08588); assay: CNS receptor binding, NE receptor β1; details: HEK293 cell line, [3H]-DHA(1)
Procedure: as §1

rat NET = target: T2, rat NET (Rattus norvegicus, UniProt Q63380); assay: Rat monoamine transporter binding assay, NET
T2 construct: from tissue; host or cells: Sprague-Dawley rat hypothalamus membranes
Procedure: Male Sprague–Dawley rats were killed by cervical dislocation, and their brains were rapidly removed and then dissected on ice. The cerebral cortex, hypothalamus and striatum were homogenised in 4 mL of assay buffer (50 mM Tris–HCl buffer, pH 7.4.) and centrifuged at 40,000× g for 10 min at 4 °C. The pellets were centrifuged twice at 20,000× g and then resuspended in 4 mL of assay buffer. […] Bio-Rad protein assay reagents (1:5 ratio) were used to analyse the protein concentration of the synaptosomal suspension.
All data for inhibition curves were analysed by nonlinear regression using Prism software (GraphPad Software Inc., San Diego, CA) to determine IC50 values. For the microdialysis experiments, two-way repeated-measures ANOVA followed by Tukey’s test was used to compare the percentage increase over baseline between groups, time and treatment as independent factors, and time as the repeated factor.

M1 = M1 (Homo sapiens, UniProt P11229); assay: CNS receptor binding, muscarinic M1; details: CHO cell line, [3H]-NMS(1)
Procedure: as §1

5-HT7 = 5-HT7 (Homo sapiens, UniProt P34969); assay: CNS receptor binding, 5-HT7; details: HEK293 cell line, [3H]-LSD(4)
Procedure: as §1

μ = μ (Homo sapiens, UniProt P35372); assay: CNS receptor binding, opioid μ; details: CHO cell line, [3H]-dipnorphine(1)
Procedure: as §1

5-HT2C = 5-HT2C (Homo sapiens, UniProt P28335); assay: CNS receptor binding, 5-HT2C; details: CHO cell lines, [3H]-mesulergine(1)
Procedure: as §1

D4 = target: T3, D4 (Homo sapiens, UniProt P21917); assay: CNS receptor binding, dopamine D4; details: HEK293 cell line, [3H]-spiperone(1)
T3 construct: expressed in transfected cells; host or cells: HEK293 cell line
Procedure: as §1

hypothalamic 5-HT levels = assay: In vivo microdialysis, extracellular 5-HT; set-up: species or system rats
Procedure: (§2) The effect of albiflorin on extracellular monoamine levels in […] was determined using methods previously described. Microdialysis probes (CMA Microdialysis) with an active membrane surface of 2 mm were perfused with artificial cerebrospinal fluid (125 mM NaCl, 3 mM KCl, 0.75 mM MgSO4 and 1.2 mM CaCl2, pH 7.4) in situ for at least 18 h before experimentation. The microdialysis probe was then implanted via the guide cannula into the hypothalamus and perfused with artificial cerebral spinal fluid at a flow rate of 1 μL/min. A 3-h stabilisation period was allowed after probe implantation, and dialysate sampling was conducted according to previously described methods. […] All subsequent values were expressed as a percentage of the mean preinjection value (i.e., percentage of baseline). […] For a minimum of 3 h after albiflorin administration, dialysis samples were collected every 20 min and analysed to determine the levels of NE, 5-HT and DA. […] A 20-μL sample from the hypothalamus was analysed for 5-HT, NE and DA content using methods described previously. […] External standard curves were used to quantify the amounts of NE, 5-HT and DA in each sample, which was calculated using the area under the curve.
(§3) All data for inhibition curves were analysed by nonlinear regression using Prism software (GraphPad Software Inc., San Diego, CA) to determine IC50 values. […]

5-HT3 = 5-HT3 (Homo sapiens, UniProt P46098); assay: CNS receptor binding, 5-HT3; details: HEK293 cell line
Procedure: as §1

[1] = test system: DA levels in the hypothalamus; assay: In vivo microdialysis, extracellular DA; details: oral, 3.5, 7.0 and 14.0 mg/kg, rats
Procedure: as §2, §3

duration of immobility [2] = test system: duration of immobility; set-up: method as in PMID 26719283; details: mice; short- and long-term administration; cited from earlier work
D2 = target: T4, D2 (Homo sapiens, UniProt P14416); assay: CNS receptor binding, dopamine D2; details: HEK293 cell line, [3H]-spiperone(1)
T4 construct: expressed in transfected cells; host or cells: HEK293 cell line
Procedure: as §1

duration of immobility [3] = test system: duration of immobility; set-up: method as in PMID 26719283; details: mice; short- and long-term administration; cited from earlier work; remark: listed apart in the source
[4] = read-out: IC50 values for albiflorin

T2 sequence (Q63380 1-617): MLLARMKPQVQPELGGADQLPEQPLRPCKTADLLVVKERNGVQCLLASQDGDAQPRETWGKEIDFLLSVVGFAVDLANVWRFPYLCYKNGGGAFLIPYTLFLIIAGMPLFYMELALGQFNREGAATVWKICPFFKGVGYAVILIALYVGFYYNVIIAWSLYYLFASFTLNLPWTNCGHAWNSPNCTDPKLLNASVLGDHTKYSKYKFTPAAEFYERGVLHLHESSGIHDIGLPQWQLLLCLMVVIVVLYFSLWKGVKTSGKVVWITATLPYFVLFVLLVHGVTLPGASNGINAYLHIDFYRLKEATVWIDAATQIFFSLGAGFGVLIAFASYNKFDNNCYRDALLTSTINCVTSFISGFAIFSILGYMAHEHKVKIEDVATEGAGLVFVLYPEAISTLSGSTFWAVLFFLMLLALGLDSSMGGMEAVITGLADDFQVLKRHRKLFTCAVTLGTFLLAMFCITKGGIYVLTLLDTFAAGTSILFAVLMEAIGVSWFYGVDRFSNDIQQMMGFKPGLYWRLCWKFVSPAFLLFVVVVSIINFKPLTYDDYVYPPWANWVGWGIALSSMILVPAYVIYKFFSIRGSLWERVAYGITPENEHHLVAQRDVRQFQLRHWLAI
Sequence of M1 (P11229 whole entry): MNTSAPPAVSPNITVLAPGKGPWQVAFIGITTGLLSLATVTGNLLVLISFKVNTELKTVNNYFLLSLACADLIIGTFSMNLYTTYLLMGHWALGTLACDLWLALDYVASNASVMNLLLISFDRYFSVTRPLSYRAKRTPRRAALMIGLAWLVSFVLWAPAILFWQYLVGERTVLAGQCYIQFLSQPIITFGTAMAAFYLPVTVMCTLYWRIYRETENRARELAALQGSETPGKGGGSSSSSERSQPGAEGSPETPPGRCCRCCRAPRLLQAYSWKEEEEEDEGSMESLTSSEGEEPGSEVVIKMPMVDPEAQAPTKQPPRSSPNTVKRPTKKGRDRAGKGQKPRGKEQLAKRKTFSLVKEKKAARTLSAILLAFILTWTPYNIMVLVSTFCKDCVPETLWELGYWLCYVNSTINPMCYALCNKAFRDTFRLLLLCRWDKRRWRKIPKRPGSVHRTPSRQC
T3 sequence (P21917 whole entry): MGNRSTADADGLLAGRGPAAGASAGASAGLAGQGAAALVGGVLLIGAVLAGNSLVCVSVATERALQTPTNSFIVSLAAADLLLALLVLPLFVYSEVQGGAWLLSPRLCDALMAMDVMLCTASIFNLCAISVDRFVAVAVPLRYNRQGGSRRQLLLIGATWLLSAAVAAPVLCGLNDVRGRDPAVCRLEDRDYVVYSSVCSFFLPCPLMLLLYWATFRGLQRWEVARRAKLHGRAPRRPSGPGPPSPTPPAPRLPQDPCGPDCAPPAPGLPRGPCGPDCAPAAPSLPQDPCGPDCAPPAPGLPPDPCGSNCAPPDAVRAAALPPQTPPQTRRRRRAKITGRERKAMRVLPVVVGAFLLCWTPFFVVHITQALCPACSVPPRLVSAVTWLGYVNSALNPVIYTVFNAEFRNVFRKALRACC
T4 sequence (P14416 whole entry): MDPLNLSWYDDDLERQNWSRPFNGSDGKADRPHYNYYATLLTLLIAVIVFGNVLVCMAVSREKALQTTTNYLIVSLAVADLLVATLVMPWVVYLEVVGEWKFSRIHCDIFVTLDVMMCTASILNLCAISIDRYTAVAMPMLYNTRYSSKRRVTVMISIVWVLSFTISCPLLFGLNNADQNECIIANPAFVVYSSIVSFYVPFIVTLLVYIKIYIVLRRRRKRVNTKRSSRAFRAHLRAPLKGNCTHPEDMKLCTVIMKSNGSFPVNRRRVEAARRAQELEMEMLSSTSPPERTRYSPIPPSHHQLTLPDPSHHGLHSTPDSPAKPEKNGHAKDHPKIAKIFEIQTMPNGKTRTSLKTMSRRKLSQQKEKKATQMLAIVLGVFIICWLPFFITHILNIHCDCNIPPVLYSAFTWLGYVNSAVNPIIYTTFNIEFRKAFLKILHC
T1 sequence (P21728 whole entry): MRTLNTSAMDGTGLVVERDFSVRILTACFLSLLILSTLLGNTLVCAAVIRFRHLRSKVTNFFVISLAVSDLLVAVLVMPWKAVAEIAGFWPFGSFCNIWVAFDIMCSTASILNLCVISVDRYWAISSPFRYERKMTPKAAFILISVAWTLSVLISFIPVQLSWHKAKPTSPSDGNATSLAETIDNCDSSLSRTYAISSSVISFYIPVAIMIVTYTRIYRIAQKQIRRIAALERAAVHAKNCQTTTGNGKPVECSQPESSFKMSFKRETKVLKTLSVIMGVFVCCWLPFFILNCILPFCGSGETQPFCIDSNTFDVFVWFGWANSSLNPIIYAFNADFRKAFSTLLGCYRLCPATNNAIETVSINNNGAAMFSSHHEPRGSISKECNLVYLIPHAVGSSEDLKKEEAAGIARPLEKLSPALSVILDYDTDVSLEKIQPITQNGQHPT
Sequence of H2 (P25021 whole entry): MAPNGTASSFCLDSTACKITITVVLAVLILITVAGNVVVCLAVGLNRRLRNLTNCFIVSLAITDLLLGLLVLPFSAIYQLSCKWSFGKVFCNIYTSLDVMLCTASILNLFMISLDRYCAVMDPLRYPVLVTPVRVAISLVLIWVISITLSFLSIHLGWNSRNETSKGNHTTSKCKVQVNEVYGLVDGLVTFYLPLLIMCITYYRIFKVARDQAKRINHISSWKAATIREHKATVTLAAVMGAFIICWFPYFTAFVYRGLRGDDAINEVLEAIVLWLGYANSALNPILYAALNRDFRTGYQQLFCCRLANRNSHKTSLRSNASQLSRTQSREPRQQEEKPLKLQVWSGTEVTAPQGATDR
Sequence of μ (P35372 whole entry): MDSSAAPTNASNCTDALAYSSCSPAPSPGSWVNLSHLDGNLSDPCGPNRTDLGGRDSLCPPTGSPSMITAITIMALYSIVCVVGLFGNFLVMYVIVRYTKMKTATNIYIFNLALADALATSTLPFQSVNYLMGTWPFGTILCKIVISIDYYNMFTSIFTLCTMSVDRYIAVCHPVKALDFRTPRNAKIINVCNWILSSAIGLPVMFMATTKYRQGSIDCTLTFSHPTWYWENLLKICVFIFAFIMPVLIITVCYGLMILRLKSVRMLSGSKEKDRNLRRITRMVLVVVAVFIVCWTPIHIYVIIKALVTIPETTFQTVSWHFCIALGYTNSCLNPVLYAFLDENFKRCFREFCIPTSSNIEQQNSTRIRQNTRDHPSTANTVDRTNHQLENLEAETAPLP
Sequence of 5-HT3 (P46098 24-478): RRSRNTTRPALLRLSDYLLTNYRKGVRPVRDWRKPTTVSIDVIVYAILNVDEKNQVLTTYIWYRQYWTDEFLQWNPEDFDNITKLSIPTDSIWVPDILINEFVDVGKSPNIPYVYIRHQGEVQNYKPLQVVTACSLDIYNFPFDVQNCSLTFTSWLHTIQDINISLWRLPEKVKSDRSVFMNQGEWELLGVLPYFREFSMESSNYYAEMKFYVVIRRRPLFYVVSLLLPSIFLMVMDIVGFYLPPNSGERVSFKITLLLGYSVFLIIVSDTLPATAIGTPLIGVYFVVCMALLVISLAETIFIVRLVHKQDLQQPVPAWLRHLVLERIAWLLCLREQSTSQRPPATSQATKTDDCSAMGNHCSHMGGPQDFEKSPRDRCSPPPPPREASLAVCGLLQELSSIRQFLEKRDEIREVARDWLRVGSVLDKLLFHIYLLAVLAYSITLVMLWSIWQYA
Sequence of 5-HT7 (P34969 whole entry): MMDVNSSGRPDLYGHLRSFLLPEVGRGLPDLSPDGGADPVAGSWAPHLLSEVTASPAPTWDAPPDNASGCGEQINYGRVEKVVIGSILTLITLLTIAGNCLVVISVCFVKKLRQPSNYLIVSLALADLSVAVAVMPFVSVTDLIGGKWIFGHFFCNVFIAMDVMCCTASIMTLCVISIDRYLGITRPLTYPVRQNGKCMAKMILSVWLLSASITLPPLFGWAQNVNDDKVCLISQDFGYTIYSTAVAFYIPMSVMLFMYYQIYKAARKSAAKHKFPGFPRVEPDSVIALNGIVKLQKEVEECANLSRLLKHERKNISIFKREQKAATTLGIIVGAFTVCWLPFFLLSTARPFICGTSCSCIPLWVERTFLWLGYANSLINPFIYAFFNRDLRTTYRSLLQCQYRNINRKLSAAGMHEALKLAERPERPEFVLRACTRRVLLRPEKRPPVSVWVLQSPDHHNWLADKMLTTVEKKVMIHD
Sequence of α2A (P22909 whole entry): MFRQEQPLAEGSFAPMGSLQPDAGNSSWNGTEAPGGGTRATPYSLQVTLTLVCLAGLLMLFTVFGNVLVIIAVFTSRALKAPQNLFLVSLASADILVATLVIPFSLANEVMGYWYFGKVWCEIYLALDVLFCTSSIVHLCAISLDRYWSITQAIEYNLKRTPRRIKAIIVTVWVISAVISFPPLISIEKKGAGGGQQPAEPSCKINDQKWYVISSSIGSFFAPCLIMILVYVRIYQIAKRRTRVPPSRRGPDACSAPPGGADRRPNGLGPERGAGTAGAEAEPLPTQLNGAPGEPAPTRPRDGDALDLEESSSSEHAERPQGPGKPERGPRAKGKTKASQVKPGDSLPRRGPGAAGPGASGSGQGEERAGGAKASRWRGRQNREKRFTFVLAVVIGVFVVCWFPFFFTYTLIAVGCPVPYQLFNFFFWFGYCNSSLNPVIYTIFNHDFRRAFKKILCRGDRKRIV
Sequence of 5-HT2C (P28335 33-458): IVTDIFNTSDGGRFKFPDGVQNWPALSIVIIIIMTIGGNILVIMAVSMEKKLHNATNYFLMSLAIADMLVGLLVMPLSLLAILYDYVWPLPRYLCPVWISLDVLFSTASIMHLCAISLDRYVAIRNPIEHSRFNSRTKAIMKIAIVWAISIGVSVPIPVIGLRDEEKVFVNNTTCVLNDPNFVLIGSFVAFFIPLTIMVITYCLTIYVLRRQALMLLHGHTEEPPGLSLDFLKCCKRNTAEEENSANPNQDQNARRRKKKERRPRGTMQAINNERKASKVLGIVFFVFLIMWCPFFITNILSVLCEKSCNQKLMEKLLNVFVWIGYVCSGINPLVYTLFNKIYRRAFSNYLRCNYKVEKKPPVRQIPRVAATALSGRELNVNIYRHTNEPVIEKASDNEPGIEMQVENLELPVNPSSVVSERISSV

C[C@]12C[C@@H](O)[C@@H]3C[C@@]1(O[C@@H]1O[C@H](CO)[C@@H](O)[C@H](O)[C@H]1O)[C@@]3(COC(=O)c1ccccc1)C(=O)O2 [albiflorin, Albiflorin]
antidepressant-like effect, sucrose consumption (sucrose consumption): reversal of chronic unpredicted mild stress-induced inhibition of sucrose consumption
% Inhibition of binding at 10 μM albiflorin (α2A): 36.66%
IC50 (α2A; [4]): > 10 µM
% Inhibition of binding at 10 μM albiflorin (D1): 54.20%
IC50 (D1; [4]): 2.99 ± 0.166 µM
% Inhibition of binding at 10 μM albiflorin (H2): 68.99%
IC50 (H2; [4]): 4 ± 0.201 µM
% Inhibition of binding at 10 μM albiflorin (β1): 63.22%
IC50 (β1; [4]): 3.35 ± 0.212 µM
Ki (rat NET; Rat, [3H]-nisoxetine, Hypothalamus): 0.00125 ± 0.00077 µM
potency/affinity relative to desipramine at the rat NET (rat NET; albiflorin vs desipramine): 4 fold and 6 fold
% Inhibition of binding at 10 μM albiflorin (M1): 21.28%
IC50 (M1; [4]): > 10 µM
% Inhibition of binding at 10 μM albiflorin (5-HT7): 14.55%
IC50 (5-HT7; [4]): > 10 µM
% Inhibition of binding at 10 μM albiflorin (μ): 23.66%
IC50 (μ; [4]): > 10 µM
% Inhibition of binding at 10 μM albiflorin (5-HT2C): 33.66%
IC50 (5-HT2C; [4]): > 10 µM
% Inhibition of binding at 10 μM albiflorin (D4): 19.50%
IC50 (D4; [4]): > 10 µM
effect on hypothalamic 5-HT levels (hypothalamic 5-HT levels; acute oral administration, 3.5, 7.0, 14.0 mg/kg, freely moving rats, vs vehicle): significant increase
time of peak 5-HT increase post administration (hypothalamic 5-HT levels; oral, rats, microdialysis): 1 h
% Inhibition of binding at 10 μM albiflorin (5-HT3; [3H]-BRL3694): 17.38%
IC50 (5-HT3; [3H]-BRL3694, read-out: IC50 values for albiflorin): > 10 µM
effect on DA levels in the hypothalamus [1]: not elevated
antidepressant-like effect, forced-swim test (duration of immobility [2]): decreases in the duration of immobility
% Inhibition of binding at 10 μM albiflorin (D2): 12.50%
IC50 (D2; [4]): > 10 µM
antidepressant-like effect, tail-suspension test (duration of immobility [3]): decreases in the duration of immobility
